The subject of series [1] is Pseudoperonospora cubensis. Kind of series: Spore suspension spray inoculation method on pot-cultured cucumber seedlings (cucumber downy mildew). The series is classed as in vivo. The conditions noted are these: for EC50: Pseudoperonospora cubensis, against cucumber downy mildew, from regression of control effect at 6.25-100 mg/L; for control effect against cucumber downy mildew (in words): at 200 mg/L concentration; for Control effect (%) Cucumber downy mildew: concentration 200 mg/L; for Control effect (%) Cucumber downy mildew / Control effect (%): 5% EC diluted with water containing 1% Tween 80; for Control effect (%): cucumber downy mildew, investigated after 5 d. The protocol:
Test Object: Pseudoperonospora cubensis Test design: the compound in a structure expressed by formula (I) (Y14078), the compound in a structure expressed by formula (II) (Y14079), and a reference chemical amisulbrom are prepared with DMF into 5% emulsifiable concentrate (hereafter abbreviated as EC) respectively, and then the EC is diluted with water containing 1% Tween 80 to 5 concentration gradients, i.e., 100, 50, 25, 12.5, and 6.25 mg/L. Each process is repeated for 4 times. Test method: the biological activity of the formulation is measured with a spore suspension spray inoculation method. Pot-cultured cucumber seedlings in the same growth state in the 1-leaf and 1-heart stage (with the growing point removed) are selected, sprayed with the formulation, and dried naturally. After 24 h, spores on the back side of the leaf infected by the disease is picked with a writing brush dipped with distilled water, and are prepared into spore suspension (2-3×10^5 spores/ml), the spore suspension is sprayed uniformly with an inoculating sprayer (at 0.1 MPa pressure) to the leaves of cucumbers, and then the inoculated cucumber seedlings are moved into a climatic chamber (relative humidity: 100%, temperature: 20° C., light-dark cycle time: 14 h/10 h) and cultured. After 24 h, the relative humidity is maintained at about 90% for induction; after 5 d, grading and investigation are carried out on the basis of the disease situation of the blank control group, and the control effect (%) is calculated according to the disease severity index. Investigation Method and Grading Criteria: Level 0: free from disease; Level 1: disease speckle area accounts for 5% or less of the total area of the leaf; Level 3: disease speckle area accounts for 6%-10% of the total area of the leaf; Level 5: disease speckle area accounts for 11%-25% of the total area of the leaf; Level 7: disease speckle area accounts for 26%-50% of the total area of the leaf; Level 9: disease speckle area accounts for 50% or more of the total area of the leaf. Effect Calculation: Disease index=Σ(quantity of leaves at all levels×relative level value)×100/(total quantity of leaves×9); Control effect (%)=(disease index of the control group−disease index of treated group)×100/disease index of control group Test design: the compound in a structure expressed by formula (I) (Y14078) and the compound in a structure expressed by formula (II) (Y14079) are prepared with DMF into 5% emulsifiable concentrate (hereafter abbreviated as EC) respectively, and then the EC is diluted with water containing 1% Tween 80 to prepare 200 mg/L formulation. Each process is repeated for 4 times. Test method for Pseudoperonospora cubensis: the biological activity of the formulation is measured with a spore suspension spray inoculation method. Pot-cultured cucumber seedlings in the same growth state in the 1-leaf and 1-heart stage (with the growing point removed) are selected, sprayed with the formulation, and dried naturally. After 24 h, spores on the back side of the leaf infected by the disease is picked with a writing brush dipped with distilled water, and are prepared into spore suspension (2-3×10^5 spores/[…]), the spore suspension is sprayed uniformly with an inoculating sprayer (at 0.1 MPa pressure) to the leaves of cucumbers, and then the inoculated cucumber seedlings are moved into a climatic chamber (relative humidity: 100%, temperature: 20° C., light-dark cycle time: 14 h/10 h) and cultured. After 24 h, the relative humidity is maintained at about 90% for induction; after 5 d, grading and investigation are carried out on the basis of the disease situation of the blank control group, and the control effect (%) is calculated according to the disease severity index. 2. […]

The test system of the next series is Rhizoctonia solani. Description: Fungus cake inoculation on pot-cultured seedlings (rice sheath blight). It is filed as in vivo. Particulars: for control effect against rice sheath blight (in words): at 200 mg/L concentration; for Control effect (%) Rice sheath blight: concentration 200 mg/L, 5% EC diluted with water containing 1% Tween 80. The protocol: Test Object: Pseudoperonospora cubensis, Rhizoctonia Solani Test design: the compound in a structure expressed by formula (I) (Y14078) and the compound in a structure expressed by formula (II) (Y14079) are prepared with DMF into 5% emulsifiable concentrate (hereafter abbreviated as EC) respectively, and then the EC is diluted with water containing 1% Tween 80 to prepare 200 mg/L formulation. Each process is repeated for 4 times. Test method for Rhizoctonia solani: two pot-cultured seedlings in the same growth state in the true leaf stage are selected, sprayed with the formulation and then dried, and fungus cakes are attached to the leaves with the hypha side facing the leave. The seedlings are kept in a dark environment at 22-26° C. moisturizing for 24 h, and then the natural lighting is recovered, and the seedlings are cultured for about 4 days. After the disease is developed extensively in the control group, the diameter of the disease speckle at each inoculated site is measured with callipers, and the control effect is calculated. 2.

In brackets after ≈: the same amount, converted by molar mass.

The compound `CN(C)S(=O)(=O)n1cnc(S(=O)(=O)Oc2ccc(Oc3ccccc3)cc2)n1` [Compound Y14079] returned a melting point of 141 to 143 °C. Also, in series [1], the response was half-maximal at 13.6 µg/mL (≈ 32 µM) (EC50), the “control effect against cucumber downy mildew (in words)” value is on record as “especially remarkable” and the “Control effect (%) Cucumber downy mildew” value stood at 100%. In addition, the “Control effect (%)” value in series [1] (concentration 6.25 mg/L) was found to be 31.21%. Moreover, the “Control effect (%)” value in series [1] (concentration 12.5 mg/L) is given as 47.79%. In addition, the “Control effect (%)” value in series [1] (concentration 25 mg/L) was 59.89%. Also, the “Control effect (%)” value in series [1] (concentration 50 mg/L) came out at 85.56%. The “Control effect (%)” value in series [1] (concentration 100 mg/L) stood at 94.63%. In addition, in the series with Rhizoctonia solani, the “control effect against rice sheath blight (in words)” value was “good control effect” and the “Control effect (%) Rice sheath blight” value came to 67.5%.

The compound `CN(C)S(=O)(=O)n1cnc(S(=O)(=O)Oc2ccc3ccccc3c2Br)n1` [Compound Y14078] gave an EC50 in series [1] of 12.2 µg/mL (≈ 26.5 µM). The “control effect against cucumber downy mildew (in words)” value in series [1] is “especially remarkable”. In addition, in series [1], the “Control effect (%) Cucumber downy mildew” value was determined as 100%. Besides, the “Control effect (%)” value in series [1] (concentration 6.25 mg/L) is reported as 35.56%; in series [1] (concentration 12.5 mg/L) it was 49.97%; in series [1] (concentration 25 mg/L) it was 67.27%; in series [1] (concentration 50 mg/L) it was 76.24%; in series [1] (concentration 100 mg/L), 87.58%. In addition, in the series with Rhizoctonia solani, the “control effect against rice sheath blight (in words)” value was “good control effect”. The “Control effect (%) Rice sheath blight” value in the series on Rhizoctonia solani is reported as 52.5%.

These data come from patent publication US11166462B2, “Fungicidal compound, fungicide composition and preparation and use thereof” (Zhejiang Udragon Bioscience Co., Ltd., priority 2016, dated 2021).
